Test results taken from paper PMC7600679, “Benzoxazole-Based Metal Complexes to Reverse Multidrug Resistance in Bacteria” (Antibiotics, 2020).
In brackets after ≈: the same amount, converted by molar mass.

Columns and labels:
S. aureus 272123 (MRSA) = experiment: Minimum inhibitory concentration (broth microdilution, CLSI); format: cell-based, Staphylococcus aureus; settings: 18 h, visual inspection
Method: (§1) The compounds were further investigated against two Gram-positive strains, S. aureus ATCC 25923 (MSSA), used as the methicillin susceptible reference strain, and the methicillin- and ofloxacin-resistant S. aureus 272123 clinical isolate (MRSA), which was given by Prof. Dr. Leonard Amaral (Institute of Hygiene and Tropical Medicine, Lisbon, Portugal).
(§2) The minimum inhibitory concentrations (MICs) of compounds were determined in 96-well plates based on the Clinical and Laboratory Standard Institute guidelines (CLSI guidelines). The compounds were diluted in 100 μL of MHB. Then, 10^−4 dilution of an overnight bacterial culture in 100 μL of medium were added to each well, with the exception of the medium control wells.

S. aureus ATCC 25923 = experiment: Anti-biofilm effect (crystal violet); format: cell-based, Staphylococcus aureus; settings: compound at ¼ MIC, 48 h, 30 °C, vs untreated biofilm mass
Method: The effect of ligands and their metal complexes on biofilm formation was evaluated on the reference S. aureus ATCC 25923 strain. The biofilm inhibition (%) was calculated based on the mean of absorbance units.
The biofilm production of the S. aureus ATCC 25923 strain was studied in 96-well plates using TSB broth in the presence of compounds. […] The final volume was 200 μL in each well. The samples were incubated at 30 °C for 48 h with gentle agitation (100 rpm). Then, the medium was removed, and the plate was washed with tap water to discard unattached cells. 200 μL CV (0.1% [v/v]) was added to the wells and incubated for 15 min at room temperature. CV was removed from the wells and the plate was washed again with tap water. 200 μL 70% ethanol was transferred to each well and the biofilm formation was determined by measuring the OD at 600 nm using Multiscan EX ELISA reader (Thermo Labsystems, Cheshire, CT, USA). The anti-biofilm effect of compounds was determined as the percentage (%) of decrease in biofilm formation. The assay was repeated a minimum of three times. The results were calculated using a t-test and p-values of <0.001 were considered significant.

[1] = tested on: MRC-5 human embryonal lung fibroblast cell line; experiment: Cytotoxicity assay (MTT); format: cell-based
Method: The MRC-5 human embryonic lung fibroblast cell line (ATCC CCL-171; provider: LGC Promochem, Teddington, UK) was used in the experiments. The cells were cultivated in Eagle’s Minimal Essential Medium (EMEM; Sigma–Aldrich, St. Louis, MO, USA), supplemented with 1% non-essential amino acid mixture, 10% heat-inactivated fetal bovine serum, 2 mM L-glutamine, 1 mM Na-pyruvate, nystatin, and a penicillin–streptomycin mixture in concentrations of 100 U/L and 10 mg/L, respectively. The supplementary components were obtained from Sigma–Aldrich, St. Louis, MO, USA. The cell culture was kept in a humidified atmosphere (5% CO2, 95% air) at 37 °C.
The activity of increasing concentrations of the compounds on cell growth was determined in 96-well flat-bottomed microtiter plates by two-fold serial dilutions of the benzoxazole derivatives. The adherent human embryonic lung fibroblast cells (10^4/well) was seeded in EMEM medium in 96-well microtiter plates for 4 h prior to the assay. The serial dilutions of the compounds were made in a separate plate, and then pipetted to the plates containing the MRC-5 cell line. Culture plates were incubated at 37 °C for 24 h; at the end of the incubation period, 20 μL of MTT (3-(4,5-dimethylthiazol-2-yl)-2,5-diphenyltetrazolium bromide) solution (from a 5 mg/mL stock solution) was measured to each well. After the incubation at 37 °C for 4 h, 100 μL of sodium dodecyl sulfate (SDS) solution (10% SDS in 0.01 M HCl) was added to each well to dissolve the formazan crystals and the samples were further incubated at 37 °C overnight. Cell growth was calculated by measuring the OD at 540 nm (ref. 630 nm) with a Multiscan EX ELISA reader. The cytotoxicity was expressed as IC50 values, defined as the inhibitory dose that reduces the growth of the cells exposed to the tested compounds by 50%.

[2] = tested on: Staphylococcus aureus ATCC 25923; experiment: Minimum inhibitory concentration (broth microdilution, CLSI); format: cell-based; settings: S. aureus ATCC 25923, 18 h, visual inspection
Method: as §1, §2

E. coli AG100 A = experiment: Real-time ethidium bromide accumulation (efflux pump inhibition); format: cell-based, Escherichia coli; settings: compounds at ¼ MIC, EB 1 μg/mL, minute 30
Method: Since multidrug resistance EPs are very important factors contributing to multidrug resistance (MDR) in both Gram-positive and Gram-negative bacteria, the inhibition of these pumps could reverse the resistant phenotype and restore the activity of antibiotics. The effect of compounds on ethidium bromide (EB) accumulation was determined by the automated EB method. This assay was used to determine how much of the fluorescent dye and pump substrate EB was accumulated by the bacterial cells in the presence of the tested compounds. The real-time accumulation of EB was monitored for 30 min in both S. aureus and E. coli strains.
The accumulation of the efflux pump substrate EB was monitored by the automated EB method using a LightCycler real-time thermocycler (LightCycler 1.5, Roche, Indianapolis, IN, USA). An aliquot of an overnight culture of the S. aureus strains in TSB medium was inoculated into fresh TSB medium, and it was incubated until it reached an optical density (OD) of 0.6 at 600 nm. In the case of E. coli strains, the medium applied in the assay was LB broth; the preparation of the inoculum was similar to the one of S. aureus. The cells were washed with phosphate buffered saline (PBS; pH 7.4) and centrifuged at 13,000 × g for 3 min, the pellets were re-suspended in PBS (pH 7.4), and the OD was calibrated to 0.6 at 600 nm. The compounds were measured at ¼ MIC concentration (in double-concentrated form) to the EB solution in PBS. The final concentration of EB was determined according to the MIC and the fluorescent signal produced by this amount of EB. In the case of all strains, the concentration of EB was 1 μg/mL. Then, 10 μL of the EB solution plus the compound were pipetted into standard glass capillary tubes of 20 µL maximum volume (Roche, Indianapolis, USA), and 10 μL of bacterial culture (OD of 0.6 at 600 nm) were transferred to the capillaries. The capillaries containing the samples were placed into the carousel, and the fluorescence was monitored at the FL-2 channel in every minute on a real-time basis.
Based on the data obtained, the relative fluorescence index (RFI) of the last time point (minute 30) was determined as follows:RFI = (RFtreated − RFuntreated)/RFuntreated(1) where RFtreated is the relative fluorescence (RF) at the last time point of the EB retention curve in the presence of an inhibitor, and RFuntreated is the relative fluorescence at the last time point of the EB retention curve of the untreated control having the solvent control (DMSO).

| Compound | MIC (S. aureus 272123 (MRSA)) [µM] | MIC (S. aureus 272123 (MRSA); Staphylococcus aureus) [µM] | Biofilm inhibition (S. aureus ATCC 25923) [%] | Cytotoxic effect (class in words) ([1]; 24 h) | IC50 ([1]; Homo sapiens, MRC5, 24 h) [µM] | MIC ([2]; Staphylococcus aureus, ATCC25923) [µM] | Relative fluorescence index (RFI) (E. coli AG100 A) | IC50 ([1]; 24 h) [µM] | MIC [2] [µM] |
| --- | --- | --- | --- | --- | --- | --- | --- | --- | --- |
| O=C(Cc1nc2ccccc2o1)C(F)F [Compound 3] | 50 (≈ 10.6 µg/mL) | 50 (≈ 10.6 µg/mL) | 16.4 | moderate (IC50: 31–60) | 44.5 | 100 (≈ 21.1 µg/mL) | −0.03 |  |  |
| [O-]C(=Cc1nc2ccccc2o1)C(F)(F)Cl.[O-]C(=Cc1nc2ccccc2o1)C(F)(F)Cl.[Zn+2] [Compound 5] | 3.125 |  |  |  |  |  | −0.19 | 24.6 | 12.5 |
| [Fe+3].[O-]C(=Cc1nc2ccccc2o1)C(F)(F)F.[O-]C(=Cc1nc2ccccc2o1)C(F)(F)F.[O-]C(=Cc1nc2ccccc2o1)C(F)(F)F [Compound 12] | 25 |  | 75 | no (IC50 > 100 µM) |  |  | 0.09 | > 100 | 50 |
